# Patent EP4516912A1, “HERBICIDE RESISTANT PLANTS” (Eberhard-Karls-Universität Tübingen, priority 2023, dated 2025)
# “Also recorded” adds a separate entry of the source.
# T1: mAtDHQS1 (Arabidopsis thaliana, UniProt Q8VYV7)
# T1 construct: The mature i.e. biologically relevant enzyme (mAtDHQS1) with 381 amino acids; (His)6 (C); made in house; host or cells: E. coli
# T1 sequence (Q8VYV7 59-442): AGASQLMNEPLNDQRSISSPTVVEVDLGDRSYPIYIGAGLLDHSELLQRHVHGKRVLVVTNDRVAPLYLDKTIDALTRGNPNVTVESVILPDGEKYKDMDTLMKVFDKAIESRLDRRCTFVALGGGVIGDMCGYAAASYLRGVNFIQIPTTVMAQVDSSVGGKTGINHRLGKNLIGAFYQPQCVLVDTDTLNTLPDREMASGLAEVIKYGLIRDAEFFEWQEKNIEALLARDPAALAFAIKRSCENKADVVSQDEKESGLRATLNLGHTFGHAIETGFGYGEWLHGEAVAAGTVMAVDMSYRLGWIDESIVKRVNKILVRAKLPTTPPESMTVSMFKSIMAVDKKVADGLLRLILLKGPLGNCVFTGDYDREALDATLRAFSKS
# T2: pAtDHQS1 (Arabidopsis thaliana, UniProt Q8VYV7)
# T2 construct: a version that still has the 61 amino acid long transit peptide for plastid import (pAtDHQS1); (His)6 (C); made in house; host or cells: E. coli
# T2 sequence (Q8VYV7 59-442): T1 sequence (Q8VYV7 59-442)
# B1: mAtDHQS1 (Arabidopsis thaliana) (protein)
# chain: T1 sequence (Q8VYV7 59-442)
# notes: The mature i.e. biologically relevant enzyme (mAtDHQS1) with 381 amino acids; (His)6 (C); made in house; host or cells: E. coli
# B2: pAtDHQS1 (Arabidopsis thaliana) (protein)
# chain: T1 sequence (Q8VYV7 59-442)
# notes: a version that still has the 61 amino acid long transit peptide for plastid import (pAtDHQS1); (His)6 (C); made in house; host or cells: E. coli
# Tests used:
# [1] = system: Arabidopsis wild type seedlings or transgenic lines overexpressing AtDHQS1-GFP or AtDHQS2-GFP; assay: comparative root growth experiments on growth medium; assay type: in vivo, Arabidopsis thaliana; conditions: 250 µM
# Protocol: (§1) (A) Schematic representation of mDHSQ1 and pDHQS1 both containing a C-terminal (His)6 tag for purification after heterologous expression of the recombinant proteins in E.coli. aa: amino acid. (B) Relative activity of mDHQS1 (left) and pDHQS1 (right) in the presence of the indicated concentrations of 7dSh. The activity in the absence of 7dSh was set to 1. […] (A) MST fluorescence spectrum of RED dye-labelled mAtDHQS1 (50 nM) in the absence of DAHP (blue line, marked as line 1) or in the presence of 500 µM DAHP (green line, marked as line 2). […] (B) MST fluorescence spectrum of RED dye-labelled mAtDHQS1 (50 nM) in the absence of 7dSh (blue line marked as line 1) or in the presence of 500 µM 7dSh (green line marked as line 2). No downward shift is detectable, showing that there is no binding. (C) MST fluorescence spectrum of RED dye-labelled mAtDHQS1 (50 nM) in the absence of 7dSh and DAHP (blue line, marked as line 1), in the presence of 250 µM DAHP (green line marked as line 2) or 250 µM DAHP and 250 µM 7dSh (red line marked as line 3). […] (A) Growth of 3-days-old wild type plants (Col-0) or two independent transgenic lines each ectopically overexpressing either EGFP-tagged AtDHQS1 (1-1, 1-2) or EGFP-tagged AtDHQS2 (2-1, 2-2) after 3 days on control plates (mock) or on plates containing 250 µM 7dSh. (B) As in (A) but the root length was quantified. n = 10 different, lower case letters mean statistically significant differences between the data sets (ANOVA test). (C) Subcellular localization of EGFP-tagged AtDHQS1 (lines 1-1 and 1-2) or EGFP-tagged AtDHQS2 (lines 2-1 and 2-2) in chloroplasts (red fluorescence) of 3-days-old transgenic Arabidopsis plants. […] (Left) relative AtDHQS1 transcript levels in the indicated transgenic Arabidopsis lines as determined by qRT-PCR using AtDHQS1 gene-specific primers. AtDHQS1 transcript levels are about ten times higher than in wild type (Col-0). (Right) relative AtDHQS2 transcript levels in the indicated transgenic Arabidopsis lines as determined by qRT-PCR using AtDHQS2 gene-specific primers. […]
# [2] = biological target: T1, mAtDHQS1; assay: enzymatic assay with purified recombinant mature AtDHQS1; assay type: biochemical; conditions: 100 to 1000 µM; 50 ng purified recombinant enzyme; Figure 1B
# Protocol: (§2) (A) Schematic representation of mDHSQ1 and pDHQS1 both containing a C-terminal (His)6 tag for purification after heterologous expression of the recombinant proteins in E.coli. aa: amino acid. (B) Relative activity of mDHQS1 (left) and pDHQS1 (right) in the presence of the indicated concentrations of 7dSh. The activity in the absence of 7dSh was set to 1. […] (A) MST fluorescence spectrum of RED dye-labelled mAtDHQS1 (50 nM) in the absence of DAHP (blue line, marked as line 1) or in the presence of 500 µM DAHP (green line, marked as line 2). […] (B) MST fluorescence spectrum of RED dye-labelled mAtDHQS1 (50 nM) in the absence of 7dSh (blue line marked as line 1) or in the presence of 500 µM 7dSh (green line marked as line 2). […] (C) MST fluorescence spectrum of RED dye-labelled mAtDHQS1 (50 nM) in the absence of 7dSh and DAHP (blue line, marked as line 1), in the presence of 250 µM DAHP (green line marked as line 2) or 250 µM DAHP and 250 µM 7dSh (red line marked as line 3). […] (B) As in (A) but the root length was quantified. n = 10 different, lower case letters mean statistically significant differences between the data sets (ANOVA test). (C) Subcellular localization of EGFP-tagged AtDHQS1 (lines 1-1 and 1-2) or EGFP-tagged AtDHQS2 (lines 2-1 and 2-2) in chloroplasts (red fluorescence) of 3-days-old transgenic Arabidopsis plants. […]
# [3] = biological target: T1, mAtDHQS1; assay: MicroScale Thermophoresis (MST) binding and competition
# Protocol: as §1
# [4] = system: Arabidopsis thaliana, Brassica napus and Hordeum vulgare seedlings; assay: sedoheptulose accumulation in seedling extracts after exposure; assay type: in vivo; conditions: extracts after exposure of seedlings of the three species
# Excerpt: The finding that AtDHQS1 is not the target of 7dSh, but that the overexpression of AtDHQS1 (-GFP) causes partial tolerance to 7dSh in Arabidopsis seems contradictory, and is in stark contrast to the findings of the prior art. Without being bound to theory, overexpression of AtDHQS1 could lead to a metabolic imbalance in the plant, and thereby could indirectly influence the amount, constitution, intracellular localization, biochemical and physiological activity of counteracting enzymes or proteins, one of which potentially being the true target for 7dSh. This hypothesis is in agreement with a recent finding that a strong accumulation of sedoheptulose was detectable in the extracts after exposure of Arabidopsis thaliana, Brassica napus and Hordeum vulgare seedlings to 7dSh. The accumulation was up to 60 times higher than in the untreated seedlings of the three species. Sedoheptulose is a ketoheptose - a monosaccharide with seven carbon atoms and a ketone functional group and one of the few heptoses found in nature. Sedoheptulose is not a metabolite of the shikimate pathway and can in no way serve as substrate for AtDHQS1.
# [5] = biological target: T2, pAtDHQS1; assay: enzymatic assay with purified recombinant AtDHQS1 still containing the transit peptide; assay type: biochemical; conditions: 100 to 1000 µM; 50 ng purified recombinant enzyme; Figure 1B
# Protocol: as §2
# [6] = system: thale cress (Arabidopsis thaliana), rapeseed/canola (Brassica napus), barley (Hordeum vulgare), maize (Zea mays), red-root amaranth (Amaranthus retroflexus) …; assay: herbicidal effect in growth medium on model and crop plants and weeds (root growth); assay type: in vivo; conditions: tested in parallel
# [7] = substrate: O=C(O)C(=O)C[C@@H](O)[C@H](O)[C@H](O)COP(=O)(O)O; assay: enzymatic assay with purified recombinant mature AtDHQS1; assay type: biochemical, Arabidopsis thaliana; conditions: other: substrate DAHP; mAtDHQS1
# Protocol: as §2
# [8] = substrate: O=C(O)C(=O)C[C@@H](O)[C@H](O)[C@H](O)COP(=O)(O)O; assay: enzymatic assay with purified recombinant AtDHQS1 still containing the transit peptide; assay type: biochemical, Arabidopsis thaliana; conditions: other: substrate DAHP; pAtDHQS1
# Protocol: as §2
# [9] = 3-days-old seedlings, two independent lines
molecule,measurement,setting,value
"C[C@@H](O)[C@@H](O)[C@@H](O)[C@H](O)C(=O)CO [7dSh, 7-deoxy-sedoheptulose]",root growth of wild type seedlings,"[1]; 3-days-old Arabidopsis wild type (Col-0) seedlings, 3 days",completely inhibited
same,tolerance of seedlings of AtDHQS2-GFP transgenic lines,[1]; [9],no tolerance
same,tolerance of seedlings of transgenic lines overexpressing AtDHQS1-GFP,[1]; [9],partial but not complete tolerance
same,effect on the activity of mAtDHQS1,[2],not inhibited; also recorded: no effect
same,competition with DAHP for binding to mAtDHQS1 (MST),"[3]; RED dye-labelled mAtDHQS1 (50 nM), 250 µM DAHP and 250 µM 7dSh, Fig. 2 C",no competition; also recorded: not able to displace DAHP
same,binding to mAtDHQS1 (MST),"[3]; RED dye-labelled mAtDHQS1 (50 nM), 500 µM ligand, Fig. 2 A/B",no binding; also recorded: no interaction
same,accumulation of sedoheptulose,[4],up to 60 times higher than in the untreated seedlings
same,effect on the activity of pAtDHQS1,[5],not inhibited; also recorded: no effect
"O=C(O)C(=O)C[C@@H](O)[C@H](O)[C@H](O)COP(=O)(O)O [DAHP, 3-deoxy-D-arabino-heptulosonate-7-phosphate, reference compound]",Kd,[3],33 µM
O=C(O)CNCP(=O)(O)O [glyphosate],effective concentrations compared with 7dSh,[6],comparable
B1,Km,[7],8.3 µM
B2,Km,[8],2.9 µM
